Source: ChEMBL document CHEMBL1255428, “Characterization of UDP-glucose dehydrogenase and UDP-glucose pyrophosphorylase mutants of Proteus mirabilis: defectiveness in polymyxin B resistance, swarming, and virulence” (2010)
Activity calls are given as the source filed them. The rule behind the calls is not given here.

Assays:
Proteus mirabilis [1] = assay: Antimicrobial activity against Proteus mirabilis dU2 knockout mutant after 16 to 18 hrs by broth micro dilution assay; type: functional
Proteus mirabilis [2] = assay: Antimicrobial activity against Proteus mirabilis dG1 knockout after 16 to 18 hrs by broth micro dilution assay; type: functional
Proteus mirabilis [3] = assay: Induction of Ugd expression in wild type Proteus mirabilis N2 at 1 ug/ml by real-time RT-PCR analysis; type: functional, organism-based
Proteus mirabilis [4] = assay: Induction of Ugd expression in Proteus mirabilis dA10 rppA knockout mutant at 1 ug/ml by real-time RT-PCR analysis; type: functional, organism-based
Proteus mirabilis [5] = assay: Induction of Ugd expression in wild type Proteus mirabilis dA10c RppA-complemented strain at 1 ug/ml by real-time RT-PCR analysis; type: functional, organism-based
Proteus mirabilis [6] = assay: Antimicrobial activity against wild type Proteus mirabilis N2 after 16 to 18 hrs by broth micro dilution assay; type: functional
Proteus mirabilis [7] = assay: Antimicrobial activity against Proteus mirabilis dU2 knockout mutant transformed with pACYC184-ugd after 16 to 18 hrs by broth micro dilution assay; type: functional
Proteus mirabilis [8] = assay: Antimicrobial activity against Proteus mirabilis dG1 knockout mutant transformed with pACYC184-galU after 16 to 18 hrs by broth micro dilution assay; type: functional

## POLYMYXIN B
Proteus mirabilis [1]
  MIC: 2 µg/mL
Proteus mirabilis [2]
  MIC: 4 µg/mL
Proteus mirabilis [3]
  Activity: Active
Proteus mirabilis [4]
  Activity: Active
Proteus mirabilis [5]
  Activity: inactive

## CCCCCCCCCCCCOS(=O)(=O)[O-].[Na+] [SODIUM LAURYL SULFATE]
Proteus mirabilis [6]
  MIC: 2000 µg/mL
Proteus mirabilis [1]
  MIC: 500 µg/mL
Proteus mirabilis [2]
  MIC: 500 µg/mL
Proteus mirabilis [7]
  MIC: 2000 µg/mL
Proteus mirabilis [8]
  MIC: 2000 µg/mL
